From patent US6096909A, “Taxoid anti-tumor agents and pharmaceutical compositions thereof” (The Research Foundation of State University of New York, priority 1997, dated 2000)
Like-named read-outs stand apart in the source and are kept apart here.

Legend:
[1] = tested on: A121 human ovarian, A549 human non-small cell lung, HT-29 human colon and MCF7 human breast cancer cells; assay: Cytotoxicity against human cancer cell panel, stated jointly for the four lines
[2] = recent report on clinical trials; cited from earlier work
HT-29 (colon carcinoma) = assay: Tumor cell growth inhibition (SRB), 72 h; format: cell-based; conditions: Homo sapiens, read-out: concentration of compound which inhibit 50% (IC50) of the growth of human tumor cell line
[3] = relative to paclitaxel; cited from earlier work
[4] = relative to paclitaxel; cited from earlier work; remark: listed apart in the source
A121 (ovarian carcinoma) = assay: Tumor cell growth inhibition (SRB), 72 h; format: cell-based; conditions: Homo sapiens, read-out: concentration of compound which inhibit 50% (IC50) of the growth of human tumor cell line
breast and lung cancers = conditions: United States, Europe, and Japan; cited from earlier work
[5] = tested on: drug-resistant tumors, e.g., adriamycin-resistant breast cancer; conditions: cited from earlier work
[6] = tested on: A549 (non-small cell lung carcinoma); assay: Tumor cell growth inhibition (SRB), 72 h; format: cell-based; conditions: Homo sapiens, read-out: concentration of compound which inhibit 50% (IC50) of the growth of human tumor cell line
MCF7 (mammary carcinoma) = assay: Tumor cell growth inhibition (SRB), 72 h; format: cell-based; conditions: Homo sapiens, read-out: concentration of compound which inhibit 50% (IC50) of the growth of human tumor cell line
[7] = tested on: MCF7-R (mammary carcinoma cells 180-fold resistant to adriamycin); assay: Tumor cell growth inhibition (SRB), 72 h; format: cell-based, human; conditions: for IC50: Homo sapiens, MCF7R, read-out: concentration of compound which inhibit 50% (IC50) of the growth of human tumor cell line
[8] = tested on: human colon carcinoma cells HCT-116; conditions: cited from earlier work
[9] = HT-29 (colon), 72 h drug exposure, mean of at least three experiments
[10] = A121 (ovarian), 72 h drug exposure, mean of at least three experiments
[11] = A549 (NSCLC), 72 h drug exposure, mean of at least three experiments
[12] = MCF7 (breast), 72 h drug exposure, mean of at least three experiments

Row | IC50 (HT-29 (colon carcinoma); [9]) [nM] | IC50 (A121 (ovarian carcinoma); [10]) [nM] | IC50 [6, 11] [nM] | IC50 (MCF7 (mammary carcinoma); [12]) [nM] | Compound | side effects in clinical trials [2] | activity against drug-resistant tumors [5] | IC50 (HT-29 (colon carcinoma); HT-29, 72 h) [nM] | IC50 (A121 (ovarian carcinoma); A121, 72 h) [nM] | IC50 (MCF7 (mammary carcinoma); MCF7, 72 h) [nM] | also measured
1 | – | – | – | – | CC(=O)O[C@@]12CO[C@@H]1C[C@H](O)[C@@]1(C)C(=O)[C@H](O)C3=C(C)[C@@H](OC(=O)[C@H](O)[C@H](C=Cc4ccccc4)NC(=O)OC(C)(C)C)C[C@@](O)([C@@H](OC(=O)c4ccccc4)[C@H]21)C3(C)C [3'-dephenyl-3'-(2-phenylethenyl)docetaxel] | – | – | – | – | – | decreased cytotoxicity ([1]; fold decrease): > 20 times
2 | – | – | – | – | CC(=O)O[C@@]12CO[C@@H]1C[C@H](O)[C@@]1(C)C(=O)[C@H](O)C3=C(C)[C@@H](OC(=O)[C@H](O)[C@H](CC(C)(C)C)NC(=O)OC(C)(C)C)C[C@@](O)([C@@H](OC(=O)c4ccccc4)[C@H]21)C3(C)C [3'-dephenyl-3'-neopentyldocetaxel] | – | – | – | – | – | cytotoxicity ([1]; in words): virtually not cytotoxic
3 | 1.2 | 1.2 | 1 | 1 | CC(=O)O[C@@]12CO[C@@H]1C[C@H](O)[C@@]1(C)C(=O)[C@H](O)C3=C(C)[C@@H](OC(=O)[C@H](O)[C@@H](NC(=O)OC(C)(C)C)c4ccccc4)C[C@@](O)([C@@H](OC(=O)c4ccccc4)[C@H]21)C3(C)C [Docetaxel] | mouth sores and plunge in white blood cells | only a weak activity | – | – | – | bioavailability compared with paclitaxel [3]: better bioavailability; antitumor activity compared with paclitaxel [4]: superior to paclitaxel; activity in phase II and III clinical trials (breast and lung cancers): excellent activities, especially against breast and lung cancers
4 | – | – | – | – | CC(=O)O[C@H]1C(=O)[C@@]2(C)[C@H]([C@H](OC(=O)c3ccccc3)[C@]3(O)C[C@H](OC(=O)[C@H](O)[C@@H](NC(=O)c4ccccc4)c4ccccc4)C(C)=C1C3(C)C)[C@]1(OC(C)=O)CO[C@@H]1C[C@@H]2O [Paclitaxel] | nerve damage, muscle pain or disturbances in heart rhythm | only a weak activity | 3.2 | 6.1 | 1.7 | IC50 ([7]; 72 h): 300 nM
5 | – | – | – | – | CC(=O)O[C@H]1C(=O)[C@@]2(C)[C@H]([C@H](OC(=O)c3ccccc3)[C@]3(O)C[C@H](OC(=O)[C@H](O)[C@H](C=C(C)C)NC(=O)c4ccccc4)C(C)=C1C3(C)C)[C@]1(OC(C)=O)CO[C@@H]1C[C@@H]2O [RAH-1, 3'-dephenyl-3'-isobutenylpaclitaxel] | – | – | 0.96 | 1.4 | 0.54 | times better activity than docetaxel ([8]; relative to docetaxel): 7 times; times better activity than paclitaxel ([8]; relative to paclitaxel): 4 times; IC50 ([6]; A549, 72 h): 0.45 nM
6 | 0.76 | 0.9 | 0.54 | 0.51 | CC=C[C@H](NC(=O)OC(C)(C)C)[C@@H](O)C(=O)O[C@H]1C[C@@]2(O)[C@@H](OC(=O)c3ccccc3)[C@@H]3[C@]4(OC(C)=O)CO[C@@H]4C[C@H](O)[C@@]3(C)C(=O)[C@H](OC(C)=O)C(=C1C)C2(C)C [Taxoid Ia] | – | – | – | – | – | activity spectrum compared with paclitaxel and docetaxel ([1]; relative to paclitaxel and docetaxel): considerably better activity spectrum; IC50 ([7]; MCF7-R, 72 h drug exposure, mean of at least three experiments): 14 nM; times better activity than docetaxel ([7]; MCF7-R, relative to docetaxel): 17 times; times better activity than paclitaxel ([7]; MCF7-R, relative to paclitaxel): 21 times
